Values after ≈ are worked out from the molar mass of the structure shown.
Test system: Bulinus africanus
Assay: Molluscicidal activity against Bulinus africanus
Format: functional
Conditions: for LC50: Bulinus africanus, read-out: LD50 (the source's name)

| SMILES | LD90 [ppm] | LC50 [µg/mL] |
| --- | --- | --- |
| COC(=O)C1=CO[C@@H](O)[C@@H]2C(COC(C)=O)=CC[C@H]12 | 39.4 | 21.7 (≈ 81 µM) |
| COC(=O)C1=CO[C@@H](O)[C@@H]2C(CO)=CC[C@H]12 [GENIPIN] | 32.57 | 25.3 (≈ 112 µM) |

Reference: ChEMBL document CHEMBL1158282, “Iridoid Molluscicidal Compounds from Apodytes dimidiata” (1996)
